Assay results: ChEMBL document CHEMBL3763135, “Synthesis and evaluation of thiophene-based guanylhydrazones (iminoguanidines) efficient against panel of voriconazole-resistant fungal isolates” (Bioorg Med Chem, 2016)
Activity calls are given as the source filed them. The calls are words filed in the database; no cut-off is given here.

Columns and labels:
[1] = tested on: Candida albicans; assay: Antifungal activity against Candida albicans ATCC 10231 by broth dilution method; assay type: functional
[2] = tested on: Candida albicans; assay: Antifungal activity against Candida albicans CA5 by broth dilution method; assay type: functional
[3] = tested on: Pichia kudriavzevii; assay: Antifungal activity against Candida krusei ATCC 34135 by broth dilution method; assay type: functional
[4] = tested on: Candida parapsilosis; assay: Antifungal activity against Candida parapsilosis C27 by broth dilution method; assay type: functional; conditions: Lodderomyces parapsilosis
[5] = tested on: Aspergillus fumigatus; assay: Antifungal activity against Aspergillus fumigatus ATCC 13073 by broth dilution method; assay type: functional
[6] = tested on: Fusarium oxysporum; assay: Antifungal activity against Fusarium oxysporum AB18 by broth dilution method; assay type: functional
[7] = tested on: Microsporum canis; assay: Antifungal activity against Microsporum canis DMT2 by broth dilution method; assay type: functional
[8] = tested on: Trichophyton mentagrophytes; assay: Antifungal activity against Trichophyton mentagrophytes DMT4 by broth dilution method; assay type: functional
[9] = tested on: MRC5; assay: Cytotoxicity against human MRC5 cells after 48 hrs by MTT assay; assay type: cell-based; conditions: MRC5, 48 h
[10] = tested on: Candida albicans; assay: Induction of DNA intercalation with Candida albicans genomic DNA at 25 ug/ml after 12 hrs by ethidium bromide staining based gel electrophoresis method
[11] = tested on: Candida albicans; assay: Antibiofilm activity against Candida albicans assessed as inhibition of Spider medium-induced hyphae formation at sub-MIC after 24 hrs by propidium iodide and FITC-conjugated concanavaline A staining based fluorescence microscopy; assay type: functional, organism-based
[12] = tested on: Candida albicans; assay: Antibiofilm activity against Candida albicans ATCC 10231 assessed as disruption of preformed biofilm after 24 hrs by concanavalin A-FITC-staining based fluorescence microscopic analysis; assay type: functional
[13] = tested on: Pichia kudriavzevii; assay: Antibiofilm activity against Pichia kudriavzevii ATCC 34135 assessed as disruption of preformed biofilm after 24 hrs by concanavalin A-FITC-staining based fluorescence microscopic analysis; assay type: functional
[14] = tested on: Candida parapsilosis; assay: Antibiofilm activity against Candida parapsilosis C27 assessed as disruption of preformed biofilm after 24 hrs by concanavalin A-FITC-staining based fluorescence microscopic analysis; assay type: functional
[15] = Hemolytic effect in sheep RBC assessed as release of hemoglobin at 25 ug/ml after 1 hr; assay type: ADME, cell-based, Ovis aries, Erythrocyte; conditions: sheep red blood cells, read-out: Activity
[16] = Hemolytic effect in sheep RBC assessed as release of hemoglobin at 40 ug/ml after 1 hr; assay type: ADME, cell-based, Ovis aries; conditions: erythrocyte

| Molecule | MIC [1] | MIC [2] | MIC [3] | MIC [4] | MIC [5] | MIC [6] | MIC [7] | MIC [8] | IC50 [9] | Activity [10] | Activity [11] | MBEC [12] | MBEC [13] | MBEC [14] | hemolysis at 1 h, 25 ug/ml [15] | Activity [16] |
| --- | --- | --- | --- | --- | --- | --- | --- | --- | --- | --- | --- | --- | --- | --- | --- | --- |
| Cl.Cl.N=C(N)N/N=C/c1ccc(-c2ccncc2)s1 | 15.6 µg/mL | 125 µg/mL | > 250 µg/mL | > 250 µg/mL | 250 µg/mL | > 250 µg/mL | 125 µg/mL | 25 µg/mL | 25 µg/mL | Active | Active | 1000 µg/mL | >1000 µg/mL | >1000 µg/mL | 20% |  |
| NYSTATIN |  |  |  |  |  |  |  |  |  |  |  |  |  |  |  | 35% |
